# “And” between values parts separate entries of the source, which are not always exact repeats. Equal values may be shown once.
# Tested on: 324938-238-R-J1-PDC complex spheroid growth, % test/control
# Assay: Anticancer human tumor 324938-238-R-J1-PDC patient-derived bladder carcinoma cell line growth inhibition [AhR]
# Details: for viability, T/C: stronger effect = lower value
# How it was run: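 Agents were dosed in half-log steps down from roughly clinical Cmax, or from 10 microM where Cmax was unknown, alone and with AhR antagonists. Read-out: percent test/control growth of tumor spheroids containing HUVEC and MSC stromal cells.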
# [1] = curve of first compound, second compound 0.1 µM
# [2] = curve of first compound, second compound 0.316 µM
# [3] = curve of first compound, second compound 1 µM
# [4] = curve of first compound, second compound 3.16 µM
# [5] = curve of first compound, second compound 10 µM
# [6] = second compound 0.1 µM, first compound 0.0316 µM
# [7] = second compound 0.1 µM, first compound 0.1 µM
# [8] = second compound 0.316 µM, first compound 0.0316 µM
# [9] = second compound 0.316 µM, first compound 0.1 µM
# [10] = second compound 1 µM, first compound 0.0316 µM
# [11] = second compound 1 µM, first compound 0.1 µM
# [12] = second compound 3.16 µM, first compound 0.0316 µM
# [13] = second compound 3.16 µM, first compound 0.1 µM
# [14] = second compound 10 µM, first compound 0.0316 µM
# [15] = second compound 10 µM, first compound 0.1 µM
# 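Also: spheroids exposed to agents for seven days before viability read.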
structure (smiles),measurement,setting,value
Cn1ncnc1C1c2n[nH]c(=O)c3cc(F)cc(c23)NC1c1ccc(F)cc1 (stereo not given) + Cc1ccccc1N=Nc1ccc(NC(=O)c2ccnn2C)c(C)c1,IC50,[1],> 100 nM
same,IC50,[2],> 100 nM
same,IC50,[3],> 100 nM
same,IC50,[4],> 100 nM
same,IC50,[5],> 100 nM
same,"viability, T/C","second compound 0.1 µM, first compound 0.000316 µM",103%
same,"viability, T/C","second compound 0.1 µM, first compound 0.001 µM",114%
same,"viability, T/C","second compound 0.1 µM, first compound 0.00316 µM",107%
same,"viability, T/C","second compound 0.1 µM, first compound 0.01 µM",83.6%
same,"viability, T/C",[6],81.1%
same,"viability, T/C",[7],63.8%
same,"viability, T/C","second compound 0.316 µM, first compound 0.000316 µM",98.4%
same,"viability, T/C","second compound 0.316 µM, first compound 0.001 µM",100%
same,"viability, T/C","second compound 0.316 µM, first compound 0.00316 µM",103%
same,"viability, T/C","second compound 0.316 µM, first compound 0.01 µM",74.4%
same,"viability, T/C",[8],76.1%
same,"viability, T/C",[9],69%
same,"viability, T/C","second compound 1 µM, first compound 0.000316 µM",92%
same,"viability, T/C","second compound 1 µM, first compound 0.001 µM",96.5%
same,"viability, T/C","second compound 1 µM, first compound 0.00316 µM",95.7%
same,"viability, T/C","second compound 1 µM, first compound 0.01 µM",66.5%
same,"viability, T/C",[10],85%
same,"viability, T/C",[11],62.4%
same,"viability, T/C","second compound 3.16 µM, first compound 0.000316 µM",83.9%
same,"viability, T/C","second compound 3.16 µM, first compound 0.001 µM",83.7%
same,"viability, T/C","second compound 3.16 µM, first compound 0.00316 µM",86.9%
same,"viability, T/C","second compound 3.16 µM, first compound 0.01 µM",73.6%
same,"viability, T/C",[12],78.3%
same,"viability, T/C",[13],61.1%
same,"viability, T/C","second compound 10 µM, first compound 0.000316 µM",78.2%
same,"viability, T/C","second compound 10 µM, first compound 0.001 µM",77.8%
same,"viability, T/C","second compound 10 µM, first compound 0.00316 µM",77.2%
same,"viability, T/C","second compound 10 µM, first compound 0.01 µM",73.5%
same,"viability, T/C",[14],69.2%
same,"viability, T/C",[15],66%
CC(C)c1c(-c2ccccc2)nc2c(C#N)c[nH]n2c1=O,"viability, T/C",compound 0.0316 µM,136% and 101% and 102%
same,"viability, T/C",compound 0.1 µM,74.3% and 108% and 99%
same,"viability, T/C",compound 0.316 µM,70.3% and 96.4% and 99.4%
same,"viability, T/C",compound 1 µM,80.5% and 97.2% and 86.3%
same,"viability, T/C",compound 3.16 µM,181% and 93.4% and 97.5%
same,"viability, T/C",compound 10 µM,99.3% and 77.3% and 90.8%
same,IC50,curve of compound,> 10000 nM
COc1cc(Nc2ncc3c(n2)-c2ccc(Cl)cc2C(c2c(F)cccc2OC)=NC3)ccc1C(=O)O + CC(CO)NC(=O)c1cc(-c2ccc(Cl)cc2)nn(-c2cnn(C)c2)c1=O,IC50,[1],76.2 nM
same,IC50,[2],79.1 nM
same,IC50,[3],72.8 nM
same,IC50,[4],< 31.6 nM
same,IC50,[5],< 31.6 nM
same,"viability, T/C",[6],77%
same,"viability, T/C",[7],41.7%
same,"viability, T/C","second compound 0.1 µM, first compound 0.316 µM",23.5%
same,"viability, T/C","second compound 0.1 µM, first compound 1 µM",23.6%
same,"viability, T/C","second compound 0.1 µM, first compound 3.16 µM",24.7%
same,"viability, T/C","second compound 0.1 µM, first compound 10 µM",31%
same,"viability, T/C",[8],71.7%
same,"viability, T/C",[9],44.5%
same,"viability, T/C","second compound 0.316 µM, first compound 0.316 µM",27.4%
same,"viability, T/C","second compound 0.316 µM, first compound 1 µM",25.4%
same,"viability, T/C","second compound 0.316 µM, first compound 3.16 µM",23.8%
same,"viability, T/C","second compound 0.316 µM, first compound 10 µM",30.1%
same,"viability, T/C",[10],60.1%
same,"viability, T/C",[11],46.1%
same,"viability, T/C","second compound 1 µM, first compound 0.316 µM",27.6%
same,"viability, T/C","second compound 1 µM, first compound 1 µM",28.6%
same,"viability, T/C","second compound 1 µM, first compound 3.16 µM",26.9%
same,"viability, T/C","second compound 1 µM, first compound 10 µM",29.2%
same,"viability, T/C",[12],49.4%
same,"viability, T/C",[13],42.5%
same,"viability, T/C","second compound 3.16 µM, first compound 0.316 µM",30%
same,"viability, T/C","second compound 3.16 µM, first compound 1 µM",25.7%
same,"viability, T/C","second compound 3.16 µM, first compound 3.16 µM",28.2%
same,"viability, T/C","second compound 3.16 µM, first compound 10 µM",29.8%
same,"viability, T/C",[14],54.7%
same,"viability, T/C",[15],40.4%
same,"viability, T/C","second compound 10 µM, first compound 0.316 µM",32.8%
same,"viability, T/C","second compound 10 µM, first compound 1 µM",34.9%
same,"viability, T/C","second compound 10 µM, first compound 3.16 µM",31.9%
same,"viability, T/C","second compound 10 µM, first compound 10 µM",39.7%
NS(=O)(=O)OCC1CC(n2ccc3c(NC4CCc5ccccc54)ncnc32)CC1O (stereo not given),"viability, T/C",compound 0.0316 µM,120% and 104% and 97.8%
same,"viability, T/C",compound 0.1 µM,79.3% and 98% and 80.5%
same,"viability, T/C",compound 0.316 µM,97.1% and 99.1% and 65.3%
same,"viability, T/C",compound 1 µM,64.7% and 67.5% and 40.5%
same,"viability, T/C",compound 3.16 µM,30.8% and 30.9% and 26.9%
same,"viability, T/C",compound 10 µM,25.3% and 31.1% and 29.9%
same,IC50,curve of compound,1860 nM and 1750 nM and 616 nM
CC1COCCN1c1cc(-c2ccnn2C)c2ccnc(-c3ccn[nH]3)c2n1 (stereo not given),"viability, T/C",compound 0.00316 µM,98.3% and 108% and 107%
same,"viability, T/C",compound 0.01 µM,92.6% and 112% and 110%
same,"viability, T/C",compound 0.0316 µM,67.5% and 99.7% and 66.6%
same,"viability, T/C",compound 0.1 µM,55.1% and 76.3% and 45%
same,"viability, T/C",compound 0.316 µM,83.7% and 48.9% and 31.1%
same,"viability, T/C",compound 1 µM,68.1% and 27.7% and 19.9%

# Reference: PubChem BioAssay AID1918995 (Molecular Pharmacology Branch, DTP, NCI, 2023)
